Measured values: ChEMBL document CHEMBL3885881, “DrugMatrix”

Species: Rattus norvegicus
Experiment: DrugMatrix - Regimen: Daily Repeat
Format: toxicity, organism-based, Sprague-Dawley
Design: regimen Daily Repeat, gender Male, age 6-8 weeks
Conditions: in vivo, po, route oral GAVAGE, vehicle .5 % CMC; for ABSOLUTE BASOPHIL / ABSOLUTE EOSINOPHIL / ABSOLUTE LYMPHOCYTE / ABSOLUTE MONOCYTE / ABSOLUTE SEGMENTED NEUTROPHIL / BASOPHIL / EOSINOPHIL / ERYTHROCYTE COUNT / HEMATOCRIT / HEMOGLOBIN / LEUKOCYTE COUNT / LYMPHOCYTE / MEAN CORPUSCULAR HEMOGLOBIN / MEAN CORPUSCULAR HEMOGLOBIN CONCENTRATION / MEAN CORPUSCULAR VOLUME / MONOCYTE / NEUTROPHIL / NUCLEATED RED BLOOD CELLS / PLATELET COUNT: tissue Blood; for ALANINE AMINOTRANSFERASE / ALBUMIN / ALKALINE PHOSPHATASE / ASPARTATE AMINOTRANSFERASE / BLOOD UREA NITROGEN / CARBON DIOXIDE / CHLORIDE / CHOLESTEROL / CREATINE PHOSPHOKINASE / CREATININE / GLUCOSE / LACTATE DEHYDROGENASE / LIPASE / PHOSPHORUS / POTASSIUM / SODIUM / TOTAL BILIRUBIN / TOTAL PROTEIN / URIC ACID: tissue Plasma
[1] = 0.3 mg/kg, 72 h, dose level Low, time 3 day
[2] = 0.3 mg/kg, 120 h, dose level Low, time 5 day
[3] = 100 mg/kg, 72 h, dose level High, time 3 day
[4] = 100 mg/kg, 120 h, dose level High, time 5 day

**Q.** What does the source list for CN1[C@@H]2CC[C@H]1C[C@@H](OC(=O)c1c[nH]c3ccccc13)C2 [TROPISETRON]?
**A.** ABSOLUTE BASOPHIL [1]: 0 CELLS/uL; ABSOLUTE EOSINOPHIL [1]: 256.33 CELLS/uL; ABSOLUTE LYMPHOCYTE [1]: 11976 CELLS/uL; ABSOLUTE MONOCYTE [1]: 96 CELLS/uL; ABSOLUTE SEGMENTED NEUTROPHIL [1]: 905 CELLS/uL; BASOPHIL [1]: 0%; EOSINOPHIL [1]: 2%; ERYTHROCYTE COUNT [1]: 5.89 x10E6/uL; HEMATOCRIT [1]: 37.4%; HEMOGLOBIN [1]: 14.07 G/DL; LEUKOCYTE COUNT [1]: 13.23 x10E3/uL; LYMPHOCYTE [1]: 90.67%; MEAN CORPUSCULAR HEMOGLOBIN [1]: 23.87 pg; MEAN CORPUSCULAR HEMOGLOBIN CONCENTRATION [1]: 37.63 G/DL; MEAN CORPUSCULAR VOLUME [1]: 63.5 fL; MONOCYTE [1]: 0.67%; NEUTROPHIL [1]: 6.67%; NUCLEATED RED BLOOD CELLS [1]: 0 /100WBC; PLATELET COUNT [1]: 1325.33 x10E3/uL; ALANINE AMINOTRANSFERASE [1]: 46.33 u/L; ALBUMIN [1]: 4.43 G/DL; ALKALINE PHOSPHATASE [1]: 408.67 u/L; ASPARTATE AMINOTRANSFERASE [1]: 87.33 u/L; BLOOD UREA NITROGEN [1]: 13 mg/dL; CARBON DIOXIDE [1]: 26 mmol/L; CHLORIDE [1]: 106 MEQ/L; CHOLESTEROL [1]: 71.33 mg/dL; CREATINE PHOSPHOKINASE [1]: 621.67 u/L; CREATININE [1]: 0.21 mg/dL; GLUCOSE [1]: 160.67 mg/dL; LACTATE DEHYDROGENASE [1]: 123.67 u/L; LIPASE [1]: 9 u/L; PHOSPHORUS [1]: 14.4 mg/dL; POTASSIUM [1]: 6.64 MEQ/L; SODIUM [1]: 147.37 MEQ/L; TOTAL BILIRUBIN [1]: 0.2 mg/dL; TOTAL PROTEIN [1]: 6.17 G/DL; URIC ACID [1]: 2.47 mg/dL; ABSOLUTE BASOPHIL [2]: 0 CELLS/uL; ABSOLUTE EOSINOPHIL [2]: 244.67 CELLS/uL; ABSOLUTE LYMPHOCYTE [2]: 13752.67 CELLS/uL; ABSOLUTE MONOCYTE [2]: 213.33 CELLS/uL; ABSOLUTE SEGMENTED NEUTROPHIL [2]: 1056 CELLS/uL; BASOPHIL [2]: 0%; EOSINOPHIL [2]: 1.67%; ERYTHROCYTE COUNT [2]: 5.41 x10E6/uL; HEMATOCRIT [2]: 34.5%; HEMOGLOBIN [2]: 13.27 G/DL; LEUKOCYTE COUNT [2]: 15.27 x10E3/uL; LYMPHOCYTE [2]: 90.33%; MEAN CORPUSCULAR HEMOGLOBIN [2]: 24.57 pg; MEAN CORPUSCULAR HEMOGLOBIN CONCENTRATION [2]: 38.43 G/DL; MEAN CORPUSCULAR VOLUME [2]: 63.8 fL; MONOCYTE [2]: 1.33%; NEUTROPHIL [2]: 6.67%; NUCLEATED RED BLOOD CELLS [2]: 0 /100WBC; PLATELET COUNT [2]: 1293.33 x10E3/uL; ALANINE AMINOTRANSFERASE [2]: 47.33 u/L; ALBUMIN [2]: 4.13 G/DL; ALKALINE PHOSPHATASE [2]: 386.33 u/L; ASPARTATE AMINOTRANSFERASE [2]: 80 u/L; BLOOD UREA NITROGEN [2]: 17.67 mg/dL; CARBON DIOXIDE [2]: 25.33 mmol/L; CHLORIDE [2]: 106.67 MEQ/L; CHOLESTEROL [2]: 71.33 mg/dL; CREATINE PHOSPHOKINASE [2]: 310 u/L; CREATININE [2]: 0.21 mg/dL; GLUCOSE [2]: 162 mg/dL; LACTATE DEHYDROGENASE [2]: 329 u/L; LIPASE [2]: 9 u/L; PHOSPHORUS [2]: 13.37 mg/dL; POTASSIUM [2]: 6 MEQ/L; SODIUM [2]: 145.27 MEQ/L; TOTAL BILIRUBIN [2]: 0.27 mg/dL; TOTAL PROTEIN [2]: 6.37 G/DL; URIC ACID [2]: 1.77 mg/dL; ABSOLUTE BASOPHIL [3]: 0 CELLS/uL; ABSOLUTE EOSINOPHIL [3]: 0 CELLS/uL; ABSOLUTE LYMPHOCYTE [3]: 8279 CELLS/uL; ABSOLUTE MONOCYTE [3]: 180 CELLS/uL; ABSOLUTE SEGMENTED NEUTROPHIL [3]: 707.67 CELLS/uL; BASOPHIL [3]: 0%; EOSINOPHIL [3]: 0%; ERYTHROCYTE COUNT [3]: 5.38 x10E6/uL; HEMATOCRIT [3]: 33.5%; HEMOGLOBIN [3]: 12.6 G/DL; LEUKOCYTE COUNT [3]: 9.17 x10E3/uL; LYMPHOCYTE [3]: 90.33%; MEAN CORPUSCULAR HEMOGLOBIN [3]: 23.47 pg; MEAN CORPUSCULAR HEMOGLOBIN CONCENTRATION [3]: 37.6 G/DL; MEAN CORPUSCULAR VOLUME [3]: 62.3 fL; MONOCYTE [3]: 2%; NEUTROPHIL [3]: 7.67%; NUCLEATED RED BLOOD CELLS [3]: 0 /100WBC; PLATELET COUNT [3]: 1392.33 x10E3/uL; ALANINE AMINOTRANSFERASE [3]: 63.67 u/L; ALBUMIN [3]: 4.3 G/DL; ALKALINE PHOSPHATASE [3]: 429.67 u/L; ASPARTATE AMINOTRANSFERASE [3]: 69.33 u/L; BLOOD UREA NITROGEN [3]: 14.33 mg/dL; CARBON DIOXIDE [3]: 27.67 mmol/L; CHLORIDE [3]: 105.67 MEQ/L; CHOLESTEROL [3]: 54.33 mg/dL; CREATINE PHOSPHOKINASE [3]: 189.33 u/L; CREATININE [3]: 0.3 mg/dL; GLUCOSE [3]: 155.33 mg/dL; LACTATE DEHYDROGENASE [3]: 122.67 u/L; LIPASE [3]: 8.33 u/L; PHOSPHORUS [3]: 13.03 mg/dL; POTASSIUM [3]: 5.65 MEQ/L; SODIUM [3]: 149.97 MEQ/L; TOTAL BILIRUBIN [3]: 0.2 mg/dL; TOTAL PROTEIN [3]: 5.87 G/DL; URIC ACID [3]: 1.2 mg/dL; ABSOLUTE BASOPHIL [4]: 0 CELLS/uL; ABSOLUTE EOSINOPHIL [4]: 100.67 CELLS/uL; ABSOLUTE LYMPHOCYTE [4]: 14254 CELLS/uL; ABSOLUTE MONOCYTE [4]: 107 CELLS/uL; ABSOLUTE SEGMENTED NEUTROPHIL [4]: 1271.67 CELLS/uL; BASOPHIL [4]: 0%; EOSINOPHIL [4]: 0.67%; ERYTHROCYTE COUNT [4]: 5.79 x10E6/uL; HEMATOCRIT [4]: 36.33%; HEMOGLOBIN [4]: 13.6 G/DL; LEUKOCYTE COUNT [4]: 15.73 x10E3/uL; LYMPHOCYTE [4]: 90.67%; MEAN CORPUSCULAR HEMOGLOBIN [4]: 23.5 pg; MEAN CORPUSCULAR HEMOGLOBIN CONCENTRATION [4]: 37.43 G/DL; MEAN CORPUSCULAR VOLUME [4]: 62.73 fL; MONOCYTE [4]: 0.67%; NEUTROPHIL [4]: 8%; NUCLEATED RED BLOOD CELLS [4]: 0 /100WBC; PLATELET COUNT [4]: 1276.33 x10E3/uL; ALANINE AMINOTRANSFERASE [4]: 63.67 u/L; ALBUMIN [4]: 4.2 G/DL; ALKALINE PHOSPHATASE [4]: 501 u/L; ASPARTATE AMINOTRANSFERASE [4]: 81.67 u/L; BLOOD UREA NITROGEN [4]: 16 mg/dL; CARBON DIOXIDE [4]: 26.33 mmol/L; CHLORIDE [4]: 105.33 MEQ/L; CHOLESTEROL [4]: 59.33 mg/dL; CREATINE PHOSPHOKINASE [4]: 219 u/L; CREATININE [4]: 0.25 mg/dL; GLUCOSE [4]: 178 mg/dL; LACTATE DEHYDROGENASE [4]: 91 u/L; LIPASE [4]: 9 u/L; PHOSPHORUS [4]: 15.37 mg/dL; POTASSIUM [4]: 5.6 MEQ/L; SODIUM [4]: 146.8 MEQ/L; TOTAL BILIRUBIN [4]: 0.17 mg/dL; TOTAL PROTEIN [4]: 6.13 G/DL; URIC ACID [4]: 2.13 mg/dL
